# Tested on: MIE p10c20
# Assay: Validation of MIE p10c20 from retrofitted metagenomic library (fluorescence)
# Format: cell-based
# Settings: 1 mM
# From the text: A metagenomic DNA library was “retroffited” as described herein and shown in FIG. 15 to identify a metabolite induced element (MIE). In FIG. 16 fluoresence plots are shown for a retroffited metagenomic library assayed for fluorescence emitted by the fluorescent marker. […] Induction was by a pool of pCoumaric acid, Vanillic acid and Vanillin. The circled data point that represents a fosmid clone harboring a candidate MIE (p10c20) which was selected for further investigation.
smiles,measurement,value
O=C(O)/C=C/c1ccc(O)cc1 [pCoumaric acid],responsiveness of MIE p10c20,most responsive

# Source: US20170226503A1, “Methods for Sequential Screening with Co-Culture Based Detection of Metagenomic Elements Conferring Heterologous Metabolite Secretion” (MetaMixis Biologics, Inc., priority 2014, published 2017)
